Where “and” joins values, the source holds several entries; their conditions need not be identical. Equal entries are not always repeated. Where two headings read alike, the source gives them in different places. Bridge positions count the residues as written; N and C are the ends. Peptide text beside a SMILES is read from it.
What was measured:
[1] = molecular target: T1, bovine β-trypsin (Bos taurus, UniProt P00760); assay: Inhibitor kinetics: trypsin amidolytic activity; assay type: biochemical; conditions: substrate BAPNA (0.2 mM)
T1 construct: bovine β-trypsin (20 ng); purchased Sigma Chemicals
T1 sequence (P00760 24-246): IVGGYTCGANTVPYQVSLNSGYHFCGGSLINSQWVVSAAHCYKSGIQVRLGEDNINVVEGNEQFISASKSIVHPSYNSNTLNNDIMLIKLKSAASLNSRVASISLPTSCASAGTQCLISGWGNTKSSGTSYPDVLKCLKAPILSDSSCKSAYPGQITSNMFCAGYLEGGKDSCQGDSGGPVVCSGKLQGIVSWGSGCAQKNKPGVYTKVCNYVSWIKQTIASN
Method: (§1) All enzymes and substrates were obtained from Sigma Chemicals if not otherwise specified. […] The release of pNa moiety was monitored as described above for 7 minutes with each point being the average of three independent triplicate reactions. IC50 was determined using the Prism 5 software suite (GraphPad software Inc.).

[2] = Figure 3 (D)
Method: Table printed on a drawing sheet, Figure 3 (D)
The patent's description of the figure: FIG. 3. Stability of SFTI variants in contact with prostate cancer cells in vitro. Residual SFTI-FCQR was assayed in tissue culture supernatants from prostate cancer cells treated with a single dose of inhibitor at time =0. Stability was assessed against LNCaP (closed circles), 22RV1 (open circles) and PC3 cells (triangles) for (A) SFTI-FCQR, (B) SFTI-FCQR Asn14 and (C) SFTI-FCQR Lys14 as summarized in (D). Data represented as mean±SEM from three independent experiments in triplicates.
First reader's note: Half-life of residual inhibitor activity in culture supernatants of prostate cancer cell lines, summarising panels (A)-(C).

[3] = molecular target: T2, KLK4 (Homo sapiens, UniProt Q9Y5K2); assay: Inhibitor kinetics: KLK4 amidolytic activity with peptide-pNA substrates; assay type: biochemical; parameters: pro-region of PSA (KLK3), replacing the native KLK4 pro-region (N, cleaved yes); made in house
Method: (§2) Human recombinant KLK4 was expressed in E. coli using a previously described chimeric KLK4 plasmid construct where the native pro-region was replaced with the pro-region of PSA, enabling autoactivation. Protein was expressed as inclusion bodies which were isolated and solubilised as described previously to yield 90% pure KLK4. Protein refolding was performed by dilution into 100 volumes of refolding buffer I (2 M urea, 0.1M NaCl, 5 mM GSH, 0.5 mM GSSG, 10 mM benzamidine, 50 mM tris HCl pH 8.0, 2 mM CaCl2) over 44 hours before further dilution into 3 volumes refolding buffer II (refolding buffer I with 0.5 M urea 0.5 mM GSH, 0.05 mM GSSG, 2 mM CaCl2) over another 24 hours. Dialysis was performed as previously described (with additional 2 mM CaCl2 to reduce aggregation) before concentration using UNO sphere Q (Biorad) eluting with tris buffered saline (pH 7.5)/2 mM CaCl2. Subsequently, the material was purified to apparent homogeneity (according to coomassie blue stained SDS PAGE) by gel filtration using Sephacryl S-200 (GE Health Care) pre-equilibrated with 50 mM Tris-HCl pH 7.5, 20 mM NaCl and 2 mM CaCl2.
All enzymes and substrates were obtained from Sigma Chemicals if not otherwise specified. Bacterially expressed human KLK4 (37 ng), bovine β-trypsin (20 ng), bovine thrombin (20 ng), bovine α-chymotrypsin (0.5 μg), protease (0.5 μg; Streptomyces griseus type XIV), bovine plasminogen (0.5 μg), and human matriptase (30 ng; R&D Systems) were incubated with various concentrations of inhibitors in 200 μL assay buffer for 10 minutes prior to initiation by the addition of 100 μL of 0.3 mM of peptide-pNA substrates (FVQR-pNA: KLK4; BAPNA: trypsin, (Streptomyces griseus Type XIV Protease and bovine plasma plasminogen); Bz-Phe-Val-Arg-pNA: thrombin and matriptase; Trp-pNA: α-chymotrypsin; Leu-pNA: (Streptomyces griseus Type XIV Protease and bovine plasma plasminogen). The release of pNa moiety was monitored as described above for 7 minutes with each point being the average of three independent triplicate reactions. IC50 was determined using the Prism 5 software suite (GraphPad software Inc.).

[4] = molecular target: T3, human matriptase (Homo sapiens, UniProt Q9Y5Y6); assay: Inhibitor kinetics: matriptase amidolytic activity; assay type: biochemical; conditions: substrate Bz-FVR-pNA (0.2 mM); read-out: IC50
T3 construct: purchased R&D Systems
T3 sequence (Q9Y5Y6 615-855 limits assumed): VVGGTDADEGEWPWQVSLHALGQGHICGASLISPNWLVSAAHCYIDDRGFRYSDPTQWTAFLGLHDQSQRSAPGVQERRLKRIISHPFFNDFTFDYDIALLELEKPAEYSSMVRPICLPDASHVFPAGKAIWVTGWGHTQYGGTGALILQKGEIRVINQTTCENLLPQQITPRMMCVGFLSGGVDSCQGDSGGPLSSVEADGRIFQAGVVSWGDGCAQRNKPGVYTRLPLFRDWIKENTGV
Method: as §1

[5] = Stability of SFTI variants in contact with prostate cancer cells in vitro; assay type: in vitro ADME; conditions: prostate cancer cell lines in serum containing medium
Method: Cell monolayers of LNCaP, 22Rv1 and PC3 cells were established in RPMI 1640 medium containing 10% fetal calf serum. Each cell line was treated +/−1 μM SFTI-FCQR contained in 4.0 mL RPMI media (as above) with a vehicle control to account for inhibition by intrinsic media factors. 25 μL samples of media were taken at 0, 24, 48, 72, 96 and 120 hrs timepoints. Media samples were boiled at 97° C. for 15 min, centrifuged at 14,000 rpm for 5 min to remove cellular debris and precipitated protein. Residual SFTI-FCQR inhibitory activity in the medium was determined against recombinant KLK4 using FVQR-pNA as a peptide substrate as above using 15ng KLK4 and 30 nmol FVQR-pNA with 2.5 μL and […] of media+/−SFTI-FCQR added from each treatment.

[6] = molecular target: KLK12 (Homo sapiens, UniProt Q9UKR0); assay: Protein proteolysis: fibrinogen digestion by KLK12; assay type: biochemical; conditions: at a concentration of 10000 nM
[7] = molecular target: T4, bovine thrombin (Bos taurus, UniProt P00735); assay: Inhibitor kinetics: thrombin amidolytic activity; assay type: biochemical; conditions: substrate Bz-FVR-pNA (0.2 mM); read-out: IC50
T4 construct: purchased Sigma Chemicals
Method: as §1

[8] = molecular target: T5, iKLK14 (Homo sapiens, UniProt Q9P0G3); assay: Inhibitor kinetics: KLK14 amidolytic activity; assay type: biochemical
T5 construct: made in house

[9] = molecular target: KLK14 (Homo sapiens, UniProt Q9P0G3); assay: Protein proteolysis: fibrinogen digestion by KLK14; assay type: biochemical; conditions: at a concentration of 10000 nM
[10] = molecular target: T6, bovine α-chymotrypsin (Bos taurus, UniProt P00766); assay: Inhibitor kinetics: α-chymotrypsin amidolytic activity; assay type: biochemical; conditions: substrate W-pNA (0.2 mM); read-out: IC50
T6 construct: purchased Sigma Chemicals
Method: as §1

[11] = system: protease (Streptomyces griseus type XIV); assay: Inhibitor kinetics: Streptomyces griseus type XIV protease; assay type: biochemical; conditions: substrate L-pNA
Method: as §1

[12] = molecular target: Thrombin; conditions: cited from earlier work
[13] = molecular target: T2, KLK4; assay: Protein proteolysis: fibrinogen digestion by KLK4 (SDS-PAGE); assay type: biochemical; parameters: pro-region of PSA (KLK3), replacing the native KLK4 pro-region (only if the E. coli preparation was used) (N, cleaved yes); made in house; conditions: inhibitor at 2 μM
Method: (§3) Fibrinogen was solubilised in assay buffer to a final concentration of 1 mg/ml and digested with KLK4 (+/−inhibitor) over a period of 90 minutes at 37° C. Typically assays consisted of 5 μM protein substrate and 2.5 nM KLK4 protein or 1 nM trypsin made up to a final volume of 8 μl with assay buffer. Proteolysis was initiated by addition of KLK4 and terminated by addition of SDS PAGE sample buffer and heat denaturation at 100° C. for 5 minutes. Hydrolysis products were resolved on 10% SDS PAGE gels and compared with incubations terminated immediately after initiation (time 0), and substrate proteins incubated in assay buffer for 90 minutes in the absence of KLK4 or 4-16 mins with trypsin.

[14] = molecular target: T7, trypsin (Bos taurus, UniProt P00760); assay: Protein proteolysis: fibrinogen digestion by trypsin (SDS-PAGE); assay type: biochemical, bovine; conditions: SDS-PAGE
T7 construct: purchased Sigma Chemicals
Method: as §3

[15] = substrate: CC(=O)N[C@@H](Cc1ccccc1)C(=O)N[C@H](C(=O)N[C@@H](CCCNC(=N)N)C(=O)Nc1ccc([N+](=O)[O-])cc1)C(C)C; assay: Kinetic studies of para-nitroanilide substrates with KLK4; assay type: biochemical, human; conditions: other: para-Nitroanilide substrate
Method: as §2
(§4) Kinetic Studies Active site titration was carried out according to Beynon et al., replacing α1-proteinase inhibitor with soybean trypsin inhibitor. Enzymatic activity assays were performed with 4.9 nM KLK4 and substrate concentrations in the range of 0-600 μM in 300 μL of assay buffer with hydrolysis monitored over 5 minutes as described for the substrate screen. The data was fitted to the Michaelis-Menten equation by […] analysis using the Prism 5 software suite (GraphPad Software Inc.).

[16] = substrate: CSCC[C@H](NC(=O)[C@@H](NC(=O)[C@@H](N)Cc1ccccc1)C(C)C)C(=O)N[C@@H](CCCNC(=N)N)C(=O)Nc1ccc([N+](=O)[O-])cc1; assay: as above; assay type: biochemical, human; conditions: other: para-Nitroanilide substrate
Method: as §2, §4

[17] = substrate: CC(C)[C@H](NC(=O)[C@H](Cc1ccccc1)NC(=O)c1ccccc1)C(=O)N[C@@H](CCCNC(=N)N)C(=O)Nc1ccc([N+](=O)[O-])cc1; assay: as above; assay type: biochemical, human; conditions: other: para-Nitroanilide substrate
Method: as §2, §4

[18] = substrate FVQR-pNA (0.2 mM), read-out: IC50

Chain of KLK12 (Q9UKR0 18-248): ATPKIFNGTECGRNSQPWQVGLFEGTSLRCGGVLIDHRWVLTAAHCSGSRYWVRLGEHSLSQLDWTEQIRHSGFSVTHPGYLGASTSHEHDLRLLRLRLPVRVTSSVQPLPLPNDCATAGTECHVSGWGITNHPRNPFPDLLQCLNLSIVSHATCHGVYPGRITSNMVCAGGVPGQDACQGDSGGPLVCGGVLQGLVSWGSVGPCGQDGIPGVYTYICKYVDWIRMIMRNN
Chain of KLK14 (Q9P0G3 35-267 limits assumed): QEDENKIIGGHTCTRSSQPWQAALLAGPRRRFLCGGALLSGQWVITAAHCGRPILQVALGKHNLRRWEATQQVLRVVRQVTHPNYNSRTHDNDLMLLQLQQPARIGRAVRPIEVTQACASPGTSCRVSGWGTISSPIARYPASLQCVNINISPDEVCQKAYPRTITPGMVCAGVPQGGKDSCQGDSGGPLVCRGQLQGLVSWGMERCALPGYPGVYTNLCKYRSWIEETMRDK
T5 sequence (Q9P0G3 41-267): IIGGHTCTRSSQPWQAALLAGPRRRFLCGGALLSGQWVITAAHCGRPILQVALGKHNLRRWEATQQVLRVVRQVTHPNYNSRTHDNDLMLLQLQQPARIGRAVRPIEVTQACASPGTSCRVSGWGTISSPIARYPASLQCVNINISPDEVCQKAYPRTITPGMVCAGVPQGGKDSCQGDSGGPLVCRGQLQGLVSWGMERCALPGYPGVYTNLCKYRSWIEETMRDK
T7 sequence (P00760 18-246 limits assumed): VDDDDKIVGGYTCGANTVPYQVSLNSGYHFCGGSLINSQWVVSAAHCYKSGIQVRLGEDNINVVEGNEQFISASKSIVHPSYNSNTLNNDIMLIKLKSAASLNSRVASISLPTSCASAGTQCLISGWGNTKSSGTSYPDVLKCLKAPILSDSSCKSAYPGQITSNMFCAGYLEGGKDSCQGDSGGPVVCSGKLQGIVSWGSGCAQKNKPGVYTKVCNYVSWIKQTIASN

For `CC[C@H](C)[C@@H]1NC(=O)[C@@H]2CCCN2C(=O)[C@@H]2CCCN2C(=O)[C@H]([C@@H](C)CC)NC(=O)[C@H](CO)NC(=O)[C@H](CCCNC(=N)N)NC(=O)[C@H](CCC(N)=O)NC(=O)[C@@H]2CSSC[C@H](NC1=O)C(=O)N[C@@H](Cc1ccccc1)C(=O)N1CCC[C@H]1C(=O)N[C@@H](CC(N)=O)C(=O)NCC(=O)N[C@@H](Cc1ccccc1)C(=O)N2` [SFTI-FCQR Asn14] (cyclo(GFCQRSIPPICFPN); disulfide 3-11), the IC50 ([1]; read-out: IC50) was 2580 ± 508 nM, the “Half-life” value [2] was 70 h and the IC50 [3] was 0.063 ± 0.002 nM. For the same molecule, the IC50 [4] was greater than 10000 nM, the “half life of inhibition (in words)” value [5] was “in the order of days” and the “inhibition of KLK12 digestion of fibrinogen” value [6] was “did not inhibit”. The IC50 [7] was greater than 10000 nM, the IC50 [8] was 251 ± 6.65 nM and the “inhibition of KLK14 digestion of fibrinogen” value [9] was “did not inhibit”. For the same molecule, the IC50 [10] was greater than 10000 nM and the IC50 [11] was greater than 10000 nM.

Molecule `CC[C@H](C)[C@@H]1NC(=O)[C@H](C)NC(=O)[C@@H]2CCCN2C(=O)[C@H]([C@@H](C)CC)NC(=O)[C@H](CO)NC(=O)[C@H](CCCNC(=N)N)NC(=O)[C@H](CCC(N)=O)NC(=O)[C@@H]2CSSC[C@H](NC1=O)C(=O)N[C@@H](Cc1ccccc1)C(=O)N1CCC[C@H]1C(=O)N[C@@H](CC(=O)O)C(=O)NCC(=O)N[C@@H](Cc1ccccc1)C(=O)N2` [SFTI-FCQR Ala9] (cyclo(AICFPDGFCQRSIP); disulfide 3-9) has an IC50 [3, 18] of 1140 ± 76 nM.

In the case of “Sunflower trypsin inhibitor [SFTI-1, reference compound]”, the Ki ([12]; substrate N-t-Boc-LRR-AMC, Long et al. 2001) is given as 5050 nM, the Ki ([12]; substrate Unknown, Luckett et al. 1999) is given as 136 nM and the “inhibition of fibrinogen proteolysis by KLK4” value [13] is given as “no inhibition”. The “concentration that completely inhibits trypsin digestion of fibrinogen” value [14] was 31.25 nM.

With `CC[C@H](C)[C@@H]1NC(=O)[C@@H]2CCCN2C(=O)[C@@H]2CCCN2C(=O)[C@H]([C@@H](C)CC)NC(=O)[C@H](CO)NC(=O)[C@H](CCCNC(=N)N)NC(=O)[C@H](CCC(N)=O)NC(=O)[C@@H]2CSSC[C@H](NC1=O)C(=O)N[C@@H](Cc1ccccc1)C(=O)N1CCC[C@H]1C(=O)N[C@@H](CCCCN)C(=O)NCC(=O)N[C@@H](Cc1ccccc1)C(=O)N2` [SFTI-FCQR Lys14] (cyclo(GFCQRSIPPICFPK); disulfide 3-11) the IC50 [1] was “Inhibitor degraded”, the “Half-life” value [2] was 9 h and 10 h and the “IC50 against KLK4 compared with SFTI-FCQR Asn14” value ([3]; substrate FVQR-pNA) was “nearly three orders of magnitude higher”. The IC50 [3, 18] was 98.9 ± 4.09 nM, the IC50 [4] was greater than 10000 nM and the “half life of inhibition (in words)” value [5] was “curtailed half life”. The IC50 [7] was greater than 10000 nM, the IC50 [10] was greater than 10000 nM and the IC50 [11] was greater than 10000 nM.

B1: KLK4 (Homo sapiens) (protein)
chain: IINGEDCSPHSQPWQAALVMENELFCSGVLVHPQWVLSAAHCFQNSYTIGLGLHSLEADQEPGSQMVEASLSVRHPEYNRPLLANDLMLIKLDESVSESDTIRSISIASQCPTAGNSCLVSGWGLLANGRMPTVLQCVNVSVVSEEVCSKLYDPLYHPSMFCAGGGHDQKDSCNGDSGGPLICNGYLQGLVSFGKAPCGQVGVPGVYTNLCKFTEWIEKTVQAS
notes: pro-region of PSA (KLK3), replacing the native KLK4 pro-region (only if the E. coli preparation was used) (N, cleaved yes); made in house
In the case of B1, the Km [15] is reported as 194.9 ± 41.4 µM, the kcat [15] is reported as 0.3 ± 0.032 s⁻¹ and the kcat/Km [15] is reported as 1540 ± 240 M⁻¹ s⁻¹. It also gave a Km [16] of 74.7 ± 10.3 µM, a Km [17] of 42.5 ± 5.9 µM and a kcat [17] of 0.57 ± 0.031 s⁻¹. The kcat/Km [17] was 13400 ± 1500 M⁻¹ s⁻¹.

From patent US20110172163A1, “Novel Protease Inhibitors” (QUEENSLAND UNIVERSITY OF TECHNOLOGY, priority 2008, published 2011)
